Measurements reported in US4536398A, “Antiviral agents” (Meiji Seika Kaisha Ltd., priority 1982, dated 1985).
≈ marks a conversion by molar mass, not a printed value. Where two headings read alike, the source gives them in different places.

Tests used:
Proteus morganii Kono = assay: Agar dilution antibacterial MIC; type: cell-based; details: Morganella morganii; agar dilution method; read-out: Minimum Inhibitory Concentration
[1] = test system: Influenza virus Horse/Miami; assay: microbe, parasite or virus in culture; type: cell-based
[2] = test system: Salmonella enteritidis No. 11; assay: Agar dilution antibacterial MIC; type: cell-based; details: Salmonella enterica, agar dilution method, read-out: Minimum Inhibitory Concentration
[3] = test system: Escherichia coli W3630 RGN 823; assay: Agar dilution antibacterial MIC; type: cell-based; details: W3630RGN823, read-out: Minimum Inhibitory Concentration
[4] = Serum level after oral administration; type: in vivo; details: 125 mg/kg oral (5% arabin gum), HPLC, mice n=3
Procedure: | Dose: 125 mg/kg (5% arabin gum)

Acute toxicity (LD50) = details: mouse, in vivo, ip; mice, intraperitoneal
Procedure: Acute toxicity (LD50 value) of the substance SF-2140, the active ingredient in the present antiviral agent, was not less than 500 mg/kg in mice via intraperitoneal administration.

[5] = test system: Influenza virus A2 /Adachi; assay: microbe, parasite or virus in culture; type: cell-based
[6] = test system: Baciullus anthrasis No. 119; assay: Agar dilution antibacterial MIC; type: cell-based; details: read-out: Minimum Inhibitory Concentration
[7] = test system: Pseudomonas aeruginosa MB 3829; assay: Agar dilution antibacterial MIC; type: cell-based; details: MB3829, agar dilution method, read-out: Minimum Inhibitory Concentration
[8] = test system: Shigella sonnei EW33 type I; assay: Agar dilution antibacterial MIC; type: cell-based; details: EW33TYPEI, agar dilution method, read-out: Minimum Inhibitory Concentration
in vitro = details: chicken, chorioallantoic membrane
[9] = test system: Pseudomonas cepacia M-0527; assay: Agar dilution antibacterial MIC; type: cell-based; details: Burkholderia cepacia, M0527; agar dilution method; read-out: Minimum Inhibitory Concentration
Proteus vulgaris OX-19 = assay: Agar dilution antibacterial MIC; type: cell-based; details: OX19, agar dilution method, read-out: Minimum Inhibitory Concentration
[10] = test system: Influenza virus Horse/Miami; assay: microbe, parasite or virus in culture; type: cell-based; remark: listed apart in the source
Sarcina lutea = assay: Agar dilution antibacterial MIC; type: cell-based; details: Micrococcus luteus; agar dilution method; read-out: Minimum Inhibitory Concentration
Influenza virus A1 /FM-1 [11] = assay: microbe, parasite or virus in culture; type: cell-based
[12] = test system: Citrobacter freundii GN 346; assay: Agar dilution antibacterial MIC; type: cell-based; details: GN346, read-out: Minimum Inhibitory Concentration
Stability = type: physicochemical
Text: (13) Stability: Stable under acidic to neutral condition, instable under alkaline condition.

Influenza virus B/Lee [13] = assay: microbe, parasite or virus in culture; type: cell-based; details: unidentified influenza virus, 48 h, read-out: 50% Virus proliferation inhibiting conc.
[14] = test system: Influenza virus A2 /Adachi; assay: microbe, parasite or virus in culture; type: cell-based; remark: listed apart in the source
Salmonella typhi 0-901-W = assay: Agar dilution antibacterial MIC; type: cell-based; details: Salmonella enterica, read-out: Minimum Inhibitory Concentration
[15] = test system: Klebsiella pneumoniae PCI 602; assay: Agar dilution antibacterial MIC; type: cell-based; details: PCI602, agar dilution method, read-out: Minimum Inhibitory Concentration
[16] = test system: Staphylococcus aureus Smith; assay: Agar dilution antibacterial MIC; type: cell-based; details: agar dilution method, read-out: Minimum Inhibitory Concentration
Solubility = type: physicochemical
Influenza virus B/Lee [17] = assay: microbe, parasite or virus in culture; type: cell-based
[18] = test system: Staphylococcus aureus 209P; assay: Agar dilution antibacterial MIC; type: cell-based; details: agar dilution method, read-out: Minimum Inhibitory Concentration
[19] = Serum level after intraperitoneal administration; type: in vivo; details: 200 mg/kg intraperitoneal (1% CMC), biological assay, mice n=5
Procedure: | Dose: 200 mg/kg (1% CMC)

Escherichia coli No. 29 = assay: Agar dilution antibacterial MIC; type: cell-based; details: agar dilution method, read-out: Minimum Inhibitory Concentration
Vibrio percolance = assay: Paper disc plate bioassay, inhibition zone; type: cell-based; details: paper disc plate method, read-out: diameter of inhibition zone
Text: For assay of the substance SF-2140, bioassay agar is used as a medium for assay and Vibrio percolance is as a test microbe.

Influenza virus A1 /FM-1 [20] = assay: microbe, parasite or virus in culture; type: cell-based; remark: listed apart in the source
[21] = test system: Streptococcus faecalis ATCC 8043; assay: Agar dilution antibacterial MIC; type: cell-based; details: Enterococcus faecalis, ATCC8043; agar dilution method; read-out: Minimum Inhibitory Concentration
[22] = unidentified influenza virus, 2 h, read-out: 50% Virucidal conc.
[23] = unidentified influenza virus, 48 h, read-out: 50% Virus proliferation inhibiting conc.

COC(=O)C1CC(O)C(O)C(n2cc(CC#N)c3c(OC)cccc32)O1 (stereo not shown) [SF-2140]
MIC (Proteus morganii Kono): > 100 mg/L
virucidal activity (in words) [1]: potent virucidal activity
IC50 [1, 22]: 4.6 mg/L (≈ 12.8 µM)
MIC [2]: 12.5 mg/L (≈ 34.7 µM)
MIC [3]: 50 mg/L (≈ 139 µM)
Serum concentration ([4]; 180 min): 0 µg/mL
concentration at 0.5 h ([4]; mouse, serum, 30 min): 15 µg/mL
concentration at 1 h ([4]; mouse, serum, 60 min): 7 µg/mL
LD50 (Acute toxicity (LD50)): ≥ 500 mg/kg
virucidal activity (in words) [5]: potent virucidal activity
IC50 [5, 22]: 58.8 mg/L (≈ 163 µM)
MIC [6]: 6.25 mg/L (≈ 17.3 µM)
MIC [7]: > 100 mg/L
MIC [8]: > 100 mg/L
CC50 at 24 h (in vitro): > 1000 mg/L
MIC [9]: 100 mg/L (≈ 277 µM)
MIC (Proteus vulgaris OX-19): 25 mg/L (≈ 69.4 µM)
proliferation inhibiting activity (in words) [10]: showed a proliferation inhibiting activity
virus proliferation inhibition index ([10]; Horse/Miami, 50% toxicity conc. / 50% proliferation inhibiting conc., 2880 min): > 56.5
IC50 [10, 23]: 17.7 mg/L (≈ 49.1 µM)
MIC (Sarcina lutea): 50 mg/L (≈ 139 µM)
virucidal activity (in words) (Influenza virus A1 /FM-1 [11]): potent virucidal activity
IC50 (Influenza virus A1 /FM-1 [11]; [22]): 4.6 mg/L (≈ 12.8 µM)
MIC [12]: > 100 mg/L
Stability (Stability; acidic to neutral condition): Stable
Stability (Stability; alkaline condition): instable
IC50 (Influenza virus B/Lee [13]): > 200 mg/L
proliferation inhibiting activity (in words) [14]: showed a proliferation inhibiting activity
virus proliferation inhibition index ([14]; A2 /Adachi, 50% toxicity conc. / 50% proliferation inhibiting conc., 2880 min): > 10.0
IC50 [14, 23]: 100 mg/L (≈ 277 µM)
MIC (Salmonella typhi 0-901-W): 100 mg/L (≈ 277 µM)
MIC [15]: > 100 mg/L
MIC [16]: 100 mg/L (≈ 277 µM)
Solubility (Solubility; Ethyl acetate, benzene, acetone, chloroform): Soluble
Solubility (Solubility; Hexane, water): Substantially insoluble
Solubility (Solubility; Lower alcohol, e.g. methanol and ethanol): Easily soluble
virucidal activity (in words) (Influenza virus B/Lee [17]): potent virucidal activity
IC50 (Influenza virus B/Lee [17]; [22]): 46.4 mg/L (≈ 129 µM)
MIC [18]: 25 mg/L (≈ 69.4 µM)
Serum concentration ([19]; 90 min): 0 µg/mL
concentration at 5 min ([19]; mouse, serum, ip, 5 min): 30 µg/mL
concentration at 10 min ([19]; mouse, serum, ip, 10 min): 42 µg/mL
concentration at 20 min ([19]; mouse, serum, ip, 20 min): 55 µg/mL
concentration at 0.5 h ([19]; mouse, serum, ip, 30 min): 45 µg/mL
concentration at 1 h ([19]; mouse, serum, ip, 60 min): 27 µg/mL
MIC (Escherichia coli No. 29): > 100 mg/L
zone of inhibition at 125 µg/mL (Vibrio percolance; 125 mcg/ml): 14.6 mm
zone of inhibition at 1000 µg/mL (Vibrio percolance; 1000 mcg/ml): 22 mm
proliferation inhibiting activity (in words) (Influenza virus A1 /FM-1 [20]): showed a proliferation inhibiting activity
virus proliferation inhibition index (Influenza virus A1 /FM-1 [20]; A1 /FM-1, 50% toxicity conc. / 50% proliferation inhibiting conc., 2880 min): > 20.0
IC50 (Influenza virus A1 /FM-1 [20]; [23]): 50.5 mg/L (≈ 140 µM)
MIC [21]: 12.5 mg/L (≈ 34.7 µM)
